# Experiments:
# [1] = biological target: T1, Recombinant Human 17β-HSD1 (Homo sapiens, UniProt P14061); test: Inhibition of recombinant human 17β-HSD1 (conversion of 3H-estrone to estradiol, HPLC); format: biochemical; details: inhibitor at 1 μM; 30 nM estrone, 1 mM NADPH, 30 min at RT; read-out: 17β-HDS1 Inhibition % at 1 μM
# T1 construct: made in house; host or cells: Sd9 (Sf9) insect cells, baculovirus (Bac to Bac Expression System)
# T1 sequence (P14061 1-328): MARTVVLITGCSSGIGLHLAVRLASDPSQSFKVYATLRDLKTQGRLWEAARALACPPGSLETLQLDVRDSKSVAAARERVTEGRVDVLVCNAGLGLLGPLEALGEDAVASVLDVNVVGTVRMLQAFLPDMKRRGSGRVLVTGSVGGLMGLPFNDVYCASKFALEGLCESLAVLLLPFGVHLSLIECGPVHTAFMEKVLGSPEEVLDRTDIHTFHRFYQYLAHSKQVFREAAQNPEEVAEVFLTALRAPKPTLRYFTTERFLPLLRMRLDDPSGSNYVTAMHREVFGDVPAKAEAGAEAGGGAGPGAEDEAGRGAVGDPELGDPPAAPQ
# Protocol: 17β-HSD1 Production and Isolation:
# Recombinant baculovirus was generated by the “Bac to Bac Expression System” (Invitrogen). Recombinant bacmid was transfected to Sd9 insect cells using “Cellfectin Reagent” (Invitrogen). 60 h later cells were harvested; the microsomal fraction was isolated as described by Puranen, T. J., Poutanen, M. H., Peltoketo, H. E., Vihko, P. T. and Vihko, R. K. (1994) Site-directed mutagenesis of the putative active site of human 17 β-hydroxysteroid dehydrogenase type 1. Biochem. J. 304: 289-293. Aliquots were stored frozen until determination of enzymatic activity.
# Assay—Inhibition of Recombinant Human 17β-HSD1:
# Recombinant protein (1 μg/ml) was incubated in 20 mM KH2PO4 pH 7.4 with 30 nM estrone (including 800.000 cpm/ml of ^3H-estrone) and 1 mM NADPH for 30 min at RT, in the presence of the potential inhibitor at concentrations 1 μM or 0.1 μM. Inhibitor stock solutions were prepared in DMSO. Final concentration of DMSO was adjusted to 1% in all samples. The enzyme reaction was stopped by addition of 10% trichloroacetic acid (final concentration). Samples were centrifuged in a microtiter plate at 4000 rpm for 10 min. Supernatants were applied to reverse phase HPLC on a Waters Symmetry C18 column, equipped with a Waters Sentry Guard column. Isocratic HPLC runs were performed at RT at a flow rate of 1 ml/min in acetonitrile:water 48:52 as running solvent. Radioactivity was monitored in the eluate by a Packard Flow Scintillation Analyzer. Total radioactivity for estrone and estradiol were determined in each sample and percent conversion of estrone to estradiol was calculated according to the following formula:
# (§1) Percent inhibition was calculated flowingly: % inhibition=100−% conversion
# [2] = biological target: T2, Recombinant Human 17β-HSD2 (Homo sapiens, UniProt P37059); test: Inhibition of recombinant human 17β-HSD2 (conversion of 3H-estradiol to estrone, HPLC); format: biochemical; details: inhibitor at 1 μM; 50 nM estradiol, 1 mM NADH, 30 min at RT; read-out: 17β-HSD2 Inhibition % at 1 μM
# T2 construct: made in house; host or cells: Sd9 (Sf9) insect cells, baculovirus (Bac to Bac Expression System)
# T2 sequence (P37059 1-387): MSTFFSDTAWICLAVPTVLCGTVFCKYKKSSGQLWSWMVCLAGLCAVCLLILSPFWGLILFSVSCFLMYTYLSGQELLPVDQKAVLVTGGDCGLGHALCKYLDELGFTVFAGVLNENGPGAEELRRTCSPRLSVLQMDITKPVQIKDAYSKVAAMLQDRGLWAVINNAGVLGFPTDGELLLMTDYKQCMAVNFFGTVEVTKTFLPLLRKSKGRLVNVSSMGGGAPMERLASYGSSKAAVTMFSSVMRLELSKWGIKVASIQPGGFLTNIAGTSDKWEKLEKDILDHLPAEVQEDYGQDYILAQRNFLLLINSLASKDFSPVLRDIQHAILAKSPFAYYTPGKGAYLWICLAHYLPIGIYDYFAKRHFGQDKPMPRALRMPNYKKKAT
# Protocol: 17β-HSD2 Production and Isolation:
# Similarly to 17β-HSD1 the Recombinant baculovirus was generated by the “Bac to Bac Expression System” (Invitrogen). Recombinant bacmid was transfected to Sd9 insect cells using “Cellfectin Reagent” (Invitrogen). 60 h later cells were harvested and supernatant were fractionated by the following protocol: • cells were dissolved into 40 ml of A-buffer (40 mM TRIS, pH8.0, 20% glycerol, 20 μM NAD, 0.4 mM PMSF, 150 mM NaCl, 0.5% dodecyl-β-maltoside+protease inhibitor cocktail) • cells were sonicated • lysate was incubated on ice for 15 min • lysate was centrifuged 5000 rpm 15 min, +4° C. • centrifugation of the supernatant 180.000 g 30 min, +4° C. • pellet was dissolved into 8 ml of A-buffer • not resuspended material was removed by centrifugation 5000 rpm 15 min, +4° C. • the clear supernatant was divided into 100 μl aliquots and were stored frozen until determination of enzymatic activity.
# The amount of 17β-HSD2 was analysed by immunoblotting and total protein concentration of each extract batch was determined.
# Assay—Inhibition of Recombinant Human 17β-HSD2:
# Recombinant protein (4 μg/ml) was incubated in 20 mM KH2PO4 pH 8.5 with 50 nM estradiol (including 800.000 cpm/ml of ^3H-estradiol) and 1 mM NADH for 30 min at RT, in the presence of the potential inhibitor at concentrations 1 μM or 0.1 μM. Inhibitor stock solutions were prepared in DMSO. Final concentration of DMSO was adjusted to 1% in all samples. The enzyme reaction was stopped by addition of 10% trichloroacetic acid (final concentration). Samples were centrifuged in a microtiter plate at 4000 rpm for 10 min. Supernatants were applied to reverse phase HPLC on a Waters Symmetry C18 column, equipped with a Waters Sentry Guard column. Isocratic HPLC runs were performed at RT at a flow rate of 1 ml/min in acetonitrile:water 48:52 as running solvent. Radioactivity was monitored in the eluate by a Packard Flow Scintillation Analyzer. Total radioactivity for estrone and estradiol were determined in each sample and percent conversion of estradiol to estrone was calculated according to the following formula:
# as §1
SMILES,inhibition at 1 µM [1],inhibition at 1 µM [2]
"Cc1cnc(NC(=O)CC[C@@H]2C[C@H](O)[C@@]3(C)CCC4c5ccc(O)cc5CCC4C23)s1 (stereo partly drawn) [Compound 1, 3-((13S,15R,17S)-3,17-Dihydroxy-13-methyl-7,8,9,11,12,13,14,15,16,17decahydro-6H-cyclopenta[a]phenanthren-15-yl)-N-(5-methylthiazol-2-yl)propanamide]",98%,48%
"COc1ccc2c(c1)CCC1C2CC[C@@]2(C)C1[C@H](CCC(=O)Nc1ncc(C)s1)C[C@@H]2O (stereo partly drawn) [Compound 6, 3-((13S,15R,17S)-17-Hydroxy-3-methoxy-13-methyl-7,8,9,11,12,13,14,15,16,17-decahydro-6H-cyclopenta[a]phenanthren-15-yl)-N-(5-methylthiazol-2-yl)propanamide]",58%,3%
"Cc1cnc(NC(=O)CC[C@@H]2C[C@@](O)(C#N)[C@@]3(C)CCC4c5ccc(O)cc5CCC4C23)s1 (stereo partly drawn) [Compound 21, 3-((13S,15R,17S)-17-cyano-3,17-dihydroxy-13-methyl-7,8,9,11,12,13,14,15,16,17-decahydro-6H-cyclopenta[a]phenanthren-15-yl)-N-(5-methylthiazol-2-yl)propanamide]",76%,6%
"CC(=O)Oc1ccc2c(c1)CCC1C2CC[C@@]2(C)C1[C@H](CCC(=O)Nc1ncc(C)s1)C[C@@]2(O)C#N (stereo partly drawn) [Compound 22, (13S,15R,17S)-17-cyano-17-hydroxy-13-methyl-15-(3-((5-methylthiazol-2-yl)amino)-3-oxopropyl)-7,8,9,11,12,13,14,15,16,17-decahydro-6H-cyclopenta[a]phenanthren-3-yl acetate]",71%,1%
"COc1ccc2c(c1)CCC1C2CC[C@@]2(C)C1[C@H](CCC(=O)Nc1ncc(C)s1)C[C@@]2(O)C#N (stereo partly drawn) [Compound 23, 3-((13S,15R,17S)-17-cyano-17-hydroxy-3-methoxy-13-methyl-7,8,9,11,12,13,14,15,16,17-decahydro-6H-cyclopenta[a]phenanthren-15-yl)-N-(5-methylthiazol-2-yl)propanamide]",82%,3%
"Cc1cnc(NC(=O)CC[C@@H]2C[C@@](O)(CC#N)[C@@]3(C)CCC4c5ccc(O)cc5CCC4C23)s1 (stereo partly drawn) [Compound 24, 3-((13S,15R,17R)-17-(cyanomethyl)-3,17-dihydroxy-13-methyl-7,8,9,11,12,13,14,15,16,17-decahydro-6H-cyclopenta[a]phenanthren-15-yl)-N-(5-methylthiazol-2-yl)propanamide]",51%,4%
"Cc1cnc(NC(=O)CC[C@@H]2C[C@H](O)[C@@]3(C)CCC4c5cc(Br)c(O)c(Br)c5CCC4C23)s1 (stereo partly drawn) [Compound 28, 3-((13S,15R,17S)-2,4-dibromo-3,17-dihydroxy-13-methyl-7,8,9,11,12,13,14,15,16,17-decahydro-6H-cyclopenta[a]phenanthren-15-yl)-N-(5-methylthiazol-2-yl)propanamide]",91%,15%
"CO[C@H]1C[C@@H](CCC(=O)Nc2ncc(C)s2)C2C3CCc4c(cc(Br)c(O)c4Br)C3CC[C@@]21C (stereo partly drawn) [Compound 29, 3-((13S,15R,17S)-2,4-dibromo-3-hydroxy-17-methoxy-13-methyl-7,8,9,11,12,13,14,15,16,17-decahydro-6H-cyclopenta[a]phenanthren-15-yl)-N-(5-methylthiazol-2-yl)propanamide]",67%,3%
"Cc1cnc(NC(=O)CC[C@@H]2C[C@@](O)(CC#N)[C@@]3(C)CCC4c5cc(Br)c(O)c(Br)c5CCC4C23)s1 (stereo partly drawn) [Compound 30, 3-((13S,15R,17R)-2,4-dibromo-17-(cyanomethyl)-3,17-dihydroxy-13-methyl-7,8,9,11,12,13,14,15,16,17-decahydro-6H-cyclopenta[a]phenanthren-15-yl)-N-(5-methylthiazol-2-yl)propanamide]",52%,7%
CC(=O)O[C@H]1C[C@@H](CCC(=O)Nc2ncc(C)s2)C2C3CCc4cc(O)ccc4C3CC[C@@]21C (some centres unmarked) [Compound 36],64%,3%

# From US9850272B2, “Therapeutically active estratrienthiazole derivatives as inhibitors of 17.beta-hydroxy-steroid dehydrogenase, type 1” (FORENDO PHARMA LTD, priority 2013, dated 2017)
